In general, IC50 refers to the concentration needed to halve the response being measured.

Chain of PI 3-Kinase Gamma (P48736 whole entry): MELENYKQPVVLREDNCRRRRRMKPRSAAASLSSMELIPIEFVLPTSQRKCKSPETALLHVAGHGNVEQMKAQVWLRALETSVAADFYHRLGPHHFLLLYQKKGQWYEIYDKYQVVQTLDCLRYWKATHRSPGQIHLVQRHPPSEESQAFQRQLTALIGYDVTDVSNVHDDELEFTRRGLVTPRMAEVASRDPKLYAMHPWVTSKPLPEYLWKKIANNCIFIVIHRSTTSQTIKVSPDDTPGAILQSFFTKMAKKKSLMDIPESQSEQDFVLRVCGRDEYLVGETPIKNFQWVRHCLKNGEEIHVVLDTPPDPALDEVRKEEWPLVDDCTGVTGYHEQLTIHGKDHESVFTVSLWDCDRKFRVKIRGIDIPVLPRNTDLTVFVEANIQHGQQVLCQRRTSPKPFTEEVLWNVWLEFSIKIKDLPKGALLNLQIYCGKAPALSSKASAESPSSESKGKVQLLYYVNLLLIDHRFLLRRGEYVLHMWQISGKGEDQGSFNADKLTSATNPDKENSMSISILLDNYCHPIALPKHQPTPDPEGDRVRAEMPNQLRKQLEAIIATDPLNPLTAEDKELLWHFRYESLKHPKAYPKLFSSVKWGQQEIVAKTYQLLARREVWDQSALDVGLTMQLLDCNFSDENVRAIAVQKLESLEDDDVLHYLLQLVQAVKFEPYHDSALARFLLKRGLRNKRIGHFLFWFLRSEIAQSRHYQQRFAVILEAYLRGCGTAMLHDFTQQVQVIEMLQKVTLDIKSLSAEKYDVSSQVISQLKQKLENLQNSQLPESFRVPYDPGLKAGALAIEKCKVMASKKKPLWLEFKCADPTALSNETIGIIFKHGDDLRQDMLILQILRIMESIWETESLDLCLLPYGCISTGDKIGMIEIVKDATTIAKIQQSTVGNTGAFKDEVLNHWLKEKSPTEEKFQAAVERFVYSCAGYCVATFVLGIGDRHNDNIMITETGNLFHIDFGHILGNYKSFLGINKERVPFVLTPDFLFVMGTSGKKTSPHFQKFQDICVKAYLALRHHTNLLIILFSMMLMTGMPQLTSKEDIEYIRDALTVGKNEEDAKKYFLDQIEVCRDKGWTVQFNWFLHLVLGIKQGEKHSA

The experiment concerns the target PI 3-Kinase Gamma (Homo sapiens (Human), UniProt P48736). Nature of the experiment: Cellular U937 AKT assay for PI 3-kinase gamma. The experiment is classed as cell-based. The conditions noted are these: U937 cells, MIP1α-stimulated AKT phosphorylation, read-out: Cell PI3K gamma IC50. The method, then:
The U937 monocyte cell line is maintained in a basal medium of RPMI 1640 supplemented with 10% heat inactivated FCS, 100 U/ml Penicillin, 100 ug/ml streptomycin and 2 mM L-glutamine (Invitrogen). U937 suspension culture is maintained by seeding cells at a density of 0.125×10^6 cells per ml in fresh medium every three or four days. Cells are incubated at 37° C., 5% CO2. […] Before beginning the cell manipulations described below, the MSD (Meso Scale Discovery) assay plate is blocked by addition of 150 ul/well blocking buffer supplied and incubated with shaking for a minimum of one hour at room temperature. All steps of the assay must be performed quickly, with accurately timed incubation periods and observing temperature controls where indicated. […] Falcon tube, counted and centrifuged for eight minutes at 300 g at room temperature. Supernatant is aspirated, the cell pellet resuspended and washed once in HBSS (Hank's Balanced Salt Solution) by centrifugation for eight minutes at 300 g at room temperature. The cell pellet is resuspended in HBSS to a concentration of 4×10^6 per ml, and 100 μL of cell suspension added to each well of a flat-bottomed 96-well tissue culture plate. Assay plates are incubated for 1.5 hours at 37° C., 5% CO2 to allow background AKT phosphorylation to reduce before the compound stimulation step. […] Compound concentrations at this stage are 4-times the final concentration required in the assay plate. Cells are stimulated with compound or HBSS 0.8% DMSO by direct transfer of 50 ul/well from the compound dilution plate. The assay plate containing compound-treated cells is then incubated for 30 minutes at 37° C. A standard plate layout is used for all experiments. Compound-treated cells, in addition to positive control wells (“max MIP1α”), are stimulated with 50 μL per well of 40 ng/ml MIP1α (R&D Systems catalogue number 270-LD, lyophilized stock reconstituted to 50 μg/ml with PBS 0.1% BSA). Negative control wells (“min HBSS”), are stimulated with 50 μl/well of HBSS in the absence of MIP1α. […] Cells are incubated with MIP1α for 3 minutes, at 37° C., 5% CO2. After the three minute stimulation period, the assay plate is kept ice cold at all times. Assay plates are centrifuged for 2 minutes at 300 g, 4° C. and supernatant is removed by gently inverting, and then blotting the plate on tissue. Cells are then washed by gentle addition of 150 μL/well of ice cold HBSS and centrifugation at 300 g, for 5 minutes at 4° C. Supernatant is aspirated and the plate blotted as described above. The plate is placed on ice and cells are immediately treated with 35 μL per well of ice cold lysis buffer, prepared according to the kit instructions (per assay plate, to 5 ml of Tris lysis buffer add 100 μl of 50× protease inhibitor solution and 50 μl of each 100× phosphatase inhibitor solutions I and II). Plates are incubated on ice for 20 minutes before centrifugation at 841 g for 5 minutes, 4° C. Block buffer is aspirated from the MSD plate, and the plate washed four times with 300 μl/well Tris wash buffer. 25 μL of cell lysate is then transferred from the assay plate to the washed MSD plate which is sealed and incubated at room temperature for one hour with shaking. The plate is washed four times with 300 μL per well of Tris wash buffer before addition of 25 μL per well of sulfo-tag anti-total AKT/pAKT detection antibody (60 μl of 50× antibody stock is diluted in 1 ml block buffer mixed with 2 ml wash buffer) and incubated at room temperature for one hour with shaking. The plate is washed four times with 300 μl per well of Tris wash buffer and 150 μl per well of Read buffer is added, taking care to avoid the introduction of bubbles. The plate is immediately read using an MSD SECTOR Imager 6000. Results are exported in Excel and the percentage of phosphorylated AKT is calculated using the equation: % Phosphoprotein=((2*Phospho signal)/(Phospho signal+Total signal))*100. […]
As to `COc1cncc(-c2cccc3nc([C@@H]4C[C@H](O)CN4c4nc(N)nc(C)c4C#N)n(-c4ccccc4)c(=O)c23)c1` [Example 25, 2-Amino-4-((2S,4S)-4-hydroxy-2-(5-(5-methoxypyridin-3-yl)-4-oxo-3-phenyl-3,4-dihydroquinazolin-2-yl)pyrrolidin-1-yl)-6-methylpyrimidine-5-carbonitrile], the IC50 was determined as 49 nM.
As to `COc1ncc(-c2cccc3nc([C@@H]4C[C@H](O)CN4c4nc(N)nc(C)c4C#N)n(-c4ccccc4)c(=O)c23)cn1` [Example 22, 2-Amino-4-((2S,4S)-4-hydroxy-2-(5-(2-methoxypyrimidin-5-yl)-4-oxo-3-phenyl-3,4-dihydroquinazolin-2-yl)pyrrolidin-1-yl)-6-methylpyrimidine-5-carbonitrile], the IC50 turned out to be 18 nM.
Turning to `Cc1nc(N)nc(N2C[C@@H](O)C[C@H]2c2nc3cccc(-c4cncnc4)c3c(=O)n2-c2ccccc2)c1C#N` [Example 26, 2-Amino-4-((2S,4S)-4-hydroxy-2-(4-oxo-3-phenyl-5-(pyrimidin-5-yl)-3,4-dihydroquinazolin-2-yl)pyrrolidin-1-yl)-6-methylpyrimidine-5-carbonitrile], the IC50 came out at 170 nM.
With `Cc1nc(N)nc(N2C[C@@H](O)C[C@H]2c2nc3cccc(-c4cnn(CCO)c4)c3c(=O)n2-c2ccccc2)c1C#N` [Example 28, 2-Amino-4-((2S,4S)-4-hydroxy-2-(5-(1-(2-hydroxyethyl)-1H-pyrazol-4-yl)-4-oxo-3-phenyl-3,4-dihydroquinazolin-2-yl)pyrrolidin-1-yl)-6-methylpyrimidine-5-carbonitrile], the IC50 is 120 nM.
In the case of `Cc1nc(N)nc(N2C[C@@H](O)C[C@H]2c2nc3ccc(F)c(-c4cnn(C)c4)c3c(=O)n2-c2ccccc2)c1C#N` [Example 1, 2-Amino-4-((2S,4S)-2-(6-fluoro-5-(1-methyl-1H-pyrazol-4-yl)-4-oxo-3-phenyl-3,4-dihydroquinazolin-2-yl)-4-hydroxypyrrolidin-1-yl)-6-methylpyrimidine-5-carbonitrile], the IC50 turned out to be 32 nM.
Take `Cc1ncc(-c2cccc3nc([C@@H]4CCCN4c4nc(N)nc(C)c4C#N)n(-c4ccccc4)c(=O)c23)cn1` [Example 19, (S)-2-Amino-4-methyl-6-(2-(5-(2-methylpyrimidin-5-yl)-4-oxo-3-phenyl-3,4-dihydroquinazolin-2-yl)pyrrolidin-1-yl)pyrimidine-5-carbonitrile]: the IC50 worked out at 220 nM.
For the compound `COc1ncc(-c2cccc3nc([C@@H]4CCCN4c4nc(N)nc(C)c4C#N)n(-c4ccccc4)c(=O)c23)cn1` [Example 4, (S)-2-Amino-4-(2-(5-(2-methoxypyrimidin-5-yl)-4-oxo-3-phenyl-3,4-dihydroquinazolin-2-yl)pyrrolidin-1-yl)-6-methylpyrimidine-5-carbonitrile], the IC50 was 40 nM.
With `Cc1nc(N)nc(N2CCC[C@H]2c2nc3ccc(F)c(-c4cnn(C)c4)c3c(=O)n2-c2ccccc2)c1C#N` [Example 6, (S)-2-Amino-4-(2-(6-fluoro-5-(1-methyl-1H-pyrazol-4-yl)-4-oxo-3-phenyl-3,4-dihydroquinazolin-2-yl)pyrrolidin-1-yl)-6-methylpyrimidine-5-carbonitrile], the IC50 is 41 nM.
For `Cc1nc(N)nc(N2CCC[C@H]2c2nc3cccc(-c4cncnc4)c3c(=O)n2-c2ccccc2)c1C#N` [Example 17, (S)-2-Amino-4-methyl-6-(2-(4-oxo-3-phenyl-5-(pyrimidin-5-yl)-3,4-dihydroquinazolin-2-yl)pyrrolidin-1-yl)pyrimidine-5-carbonitrile] the value was 290 nM; for `CCOc1ncc(-c2cccc3nc([C@@H]4CCCN4c4nc(N)nc(C)c4C#N)n(-c4ccccc4)c(=O)c23)cn1` [Example 32, (S)-2-Amino-4-(2-(5-(2-ethoxypyrimidin-5-yl)-4-oxo-3-phenyl-3,4-dihydroquinazolin-2-yl)pyrrolidin-1-yl)-6-methylpyrimidine-5-carbonitrile], 720 nM.
Turning to `Cc1nc(N)nc(N2C[C@@H](O)C[C@H]2c2nc3ccc(F)c(-c4cn(C)cn4)c3c(=O)n2-c2ccccc2)c1C#N` [Example 31, 2-Amino-4-((2S,4S)-2-(6-fluoro-5-(1-methyl-1H-imidazol-4-yl)-4-oxo-3-phenyl-3,4-dihydroquinazolin-2-yl)-4-hydroxypyrrolidin-1-yl)-6-methylpyrimidine-5-carbonitrile], the IC50 stood at 240 nM.
For the compound `COc1ncc(-c2c(F)ccc3nc([C@@H]4C[C@H](O)CN4c4nc(N)nc(C)c4C#N)n(-c4ccccc4)c(=O)c23)cn1` [Example 7, 2-Amino-4-((2S,4S)-2-(6-fluoro-5-(2-methoxypyrimidin-5-yl)-4-oxo-3-phenyl-3,4-dihydroquinazolin-2-yl)-4-hydroxypyrrolidin-1-yl)-6-methylpyrimidine-5-carbonitrile], the IC50 was determined as 25 nM.
The value for `COc1ccc(-c2cccc3nc([C@@H]4CCCN4c4nc(N)nc(C)c4C#N)n(-c4ccccc4)c(=O)c23)cn1` [Example 21, (S)-2-Amino-4-(2-(5-(6-methoxypyridin-3-yl)-4-oxo-3-phenyl-3,4-dihydroquinazolin-2-yl)pyrrolidin-1-yl)-6-methylpyrimidine-5-carbonitrile] was 1100 nM.
On to `COc1ncc(-c2cccc3nc([C@@H]4C[C@H](OC)CN4c4nc(N)nc(C)c4C#N)n(-c4ccccc4)c(=O)c23)cn1` [Example 12, 2-Amino-4-((2S,4S)-4-methoxy-2-(5-(2-methoxypyrimidin-5-yl)-4-oxo-3-phenyl-3,4-dihydroquinazolin-2-yl)pyrrolidin-1-yl)-6-methylpyrimidine-5-carbonitrile], for which the IC50 was determined as 120 nM.
Take `Cn1cc(-c2c(F)ccc3nc([C@@H]4CCCN4c4ncnc(N)c4C#N)n(-c4ccccc4)c(=O)c23)cn1` [Example 5, (S)-4-Amino-6-(2-(6-fluoro-5-(1-methyl-1H-pyrazol-4-yl)-4-oxo-3-phenyl-3,4-dihydroquinazolin-2-yl)pyrrolidin-1-yl)pyrimidine-5-carbonitrile]: the IC50 came to 220 nM.
Consider `COc1ccc(-c2cccc3nc([C@@H]4C[C@H](O)CN4c4nc(N)nc(C)c4C#N)n(-c4ccccc4)c(=O)c23)cn1` [Example 27, 2-Amino-4-((2S,4S)-4-hydroxy-2-(5-(6-methoxypyridin-3-yl)-4-oxo-3-phenyl-3,4-dihydroquinazolin-2-yl)pyrrolidin-1-yl)-6-methylpyrimidine-5-carbonitrile], for which the IC50 is 63 nM.
For `Cc1nc(N)nc(N2C[C@@H](F)C[C@H]2c2nc3cccc(-c4cnn(C)c4)c3c(=O)n2-c2ccccc2)c1C#N` [Example 30, 2-Amino-4-((2S,4S)-4-fluoro-2-(5-(1-methyl-1H-pyrazol-4-yl)-4-oxo-3-phenyl-3,4-dihydroquinazolin-2-yl)pyrrolidin-1-yl)-6-methylpyrimidine-5-carbonitrile] the value was 11 nM.
For `Cn1cc(-c2c(F)ccc3nc([C@@H]4C[C@H](O)CN4c4ncnc(N)c4C#N)n(-c4ccccc4)c(=O)c23)cn1` [Example 8, 4-Amino-6-((2S,4S)-2-(6-fluoro-5-(1-methyl-1H-pyrazol-4-yl)-4-oxo-3-phenyl-3,4-dihydroquinazolin-2-yl)-4-hydroxypyrrolidin-1-yl) pyrimidine-5-carbonitrile], the IC50 was 29 nM.
As to `Cc1ccccc1-n1c([C@@H]2CCCN2c2ncnc(N)c2C#N)nc2cccc(-c3cnn(C)c3)c2c1=O` [Example 14, (S)-4-Amino-6-(2-(5-(1-methyl-1H-pyrazol-4-yl)-4-oxo-3-(otolyl)-3,4-dihydroquinazolin-2-yl)pyrrolidin-1-yl)pyrimidine-5-carbonitrile], the IC50 is 210 nM.

These data come from patent publication US9840498B2, “Substituted quinazolin-4-one derivatives” (NOVARTIS AG, priority 2013, dated 2017).
